Patent publication US4916068A, “Bioconversion production of ascorbic acid with L-galactono-1,4-oxidase” (Kraft, Inc., priority 1984, dated 1990)

How the values were obtained:
[1] = test system: preferred yeast strains; assay: utilization of galactose derivatives for L-ascorbic acid formation; assay type: cell-based; settings: compared with L-galactono-gamma-lactone
Excerpt: The D-galactose 18 is converted by catalytic oxidation to provide D-galacturonic acid 22. Processes to carry out this oxidative step for D-sugar acids are well known in the art and have been described in U.S. Pat. No. 2,265,121 by T. Reichstein. A variety of catalytic agents, e.g., platinum or palladium catalysts may be employed to convert blocked D-galactose (acetone) to the D-galacturonic acid product. The unblocked D-galacturonic acid may then be reduced by an appropriate reduction step such as reduction with gaseous hydrogen in the presence of a suitable hydrogenation catalyst such as Raney nickel, or palladium, to produce L-galactonic acid 24. Processes to carry out this chemical reduction are well known in the art such as described by H. Isbell, J. Res. Nat. Bur. Stds., 33, 45-60 (1944). Removal of water by distillation and condensation of the desalted L-sugar acid induces the formation of L-galactono-gamma-lactone 26 which is utilized in the microbiological conversion process of the present invention to form L-ascorbic acid. […] Keto-derivatives such as 5-Keto-L-Galactonic acid, are not utilized by the preferred yeast strains particularly described herein. The L-galactono-gamma-lactone 26, ethanol 16, and suitable organic and inorganic nutrients are combined to provide a fermentation medium 28 for a selected L-ascorbic acid overproducer.

[2] = test system: Candida norvegensis; assay: Assimilation tests (identification of the yeast); assay type: cell-based; settings: C. norvegensis MF-56, MF-78 and parent CBS 2145
Excerpt: The morphological, cultural and physiological characteristics of the mutant strain C. norvegensis Kraft, Inc. MF-56 ATCC 20686, the mutant strain C. norvegensis Kraft, Inc. MF-78 ATCC 20732, and the parent strain C. norvegensis CBS 2145 are consistent with the yeast description provided in The Yeasts, a taxononomic study (J. Lodder (Ed.) 1970, North Holland Publishing Co., Amsterdam) and A New Key to the Yeasts (J. A. Barnett & R. J. Parkhurst (Ed) 1974, North Holland Publishing Co., Amsterdam).

[3] = test system: Candida utilus NRRL Y-900; assay: aerobic bioconversion run with ethanol carbon source; assay type: cell-based; settings: 48 hours; for Other redox Compounds / Total Ascorbate / L-Ascorbate: 0.2% substrate; for L-Ascorbate: HPLC with electrochemical detection; for Optical Density: SMl + 1.5% ethanol + 0.2% substrate, 30° C.
Method: (§1) Two yeast strains, Candida norvegensis CBS 1911 and Candida utilus NRRL Y-900 are utilized with an ethanol carbon source in separate bioconversion runs with each of two different substrates, L-galactono-1,4-lactone or D-galacturonic acid-methyl ester. The bioconversion runs are carried out under aerobic conditions in a 500 milliliter low actinic flask containing 50 ml of the biconversion medium. The bioconversions were carried out at a temperature of 30° C. for 48 hours with agitation provided by a skaker operating at 200 rpm. The medium for the C. norvegensis runs was the SMl medium previously described plus 1.5% ethanol plus 0.5% substrate. The medium for the C. utilus runs were SMl plus 1.5% ethanol plus 0.2% substrate.

[4] = test system: Candida norvegensis CBS 1911; assay: as above; assay type: cell-based; settings: 48 hours; for Other redox Compounds / Total Ascorbate / L-Ascorbate: 0.5% substrate; for L-Ascorbate: HPLC with electrochemical detection; for Optical Density: SMl + 1.5% ethanol + 0.5% substrate, 30° C.
Method: as §1

[5] = test system: L-Galactono-1,4-Lactone Oxidase; assay: L-galactono-1,4-lactone oxidase activity, comparison of yeast strains; assay type: biochemical; settings: C. norvegensis (CBS 1911)
Method: An assay mixture is provided which contains 2mM L-galactono-1,4-lactone and 50 mM Na-Citrate pH 6.8 in a total volume of 3 ml. The mixture is incubated at 37° C. in a shaker bath for up to 30 minutes. The reaction is stopped by adding 0.3 ml of 50% TCA. The precipitated protein is removed by centrifugation and the supernatant is assayed for L-ascorbate by high performance liquid chromatography analysis with electrochemical detection and by 2,6,dichloroindophenol titration.
A series of 5 detergents: (1) nonylphenol POE-9 (NP-9), (2) polydet (P-40), (3) octylglucoside, (4) (3-[3-cholamindopropyl)-dimethylammonio]1-propane sulfonate (CHAPS), and (5) (3-[3-cholamindopropyl)-dimethyl ammonio]-2-hydroxy-1-propane sulfonate).2H2 O (CHAPSO) were tested. […] Biochem. & Biophys., 191, 47a (1978)].

[6] = substrate: O=C1O[C@H]([C@@H](O)CO)[C@@H](O)[C@@H]1O; assay: mitochondrial assay for L-galactono-1,4-lactone oxidase activity; assay type: biochemical, Saccharomyces Cerevisiae; settings: other: intact mitochondrial system, substrate 0.1 mM to 50 mM; 37.0 °C
Excerpt: Two pounds of Red Star baker's yeast (Saccharomyces Cerevisiae), which is not overproductive in L-Ascorbic acid were disrupted according to the method of Tzagoloff [J. Biol. Chem., 244, 5020 (1969)]. The frozen powder (900 gm) was transferred to 1.51 of a solution consisting of 0.4 M sucrose, 0.05 M Tris(hydroxymethyl) amino methane (Tris-HCl) pH 8.2, with one millimolar ethylene diamine tetracetic acid (EDTA). The pH of the suspension was adjusted to 7.5 with sodium hydroxide and the suspension was subsequently homogenized in a blender for 45 seconds. The homogenate was centrifuged at 2500×g for 15 minutes at 4° C. and the cell debris was discarded. The supernatant was centrifuged at 62000×g in a Shar-les centrifuge. The pellet (mitochondria) was saved and resuspended in 250 ml of a solution containing 0.25 M sucrose and 0.01 M Tris-HCl pH 7.5 and frozen.
An assay mixture is provided which contains 2mM L-galactono-1,4-lactone and 50 mM Na-Citrate pH 6.8 in a total volume of 3 ml. The mixture is incubated at 37° C. in a shaker bath for up to 30 minutes. The reaction is stopped by adding 0.3 ml of 50% TCA. […]
The specific activity of this sample was calculated to be 2.5 ×10^-3 micromoles/min/mg protein. […]

O=C(O)[C@@H](O)[C@H](O)[C@H](O)C(=O)CO [5-Keto-L-Galactonic acid]
utilization as substrate for L-ascorbic acid [1]: not utilized

O=C[C@H](O)[C@@H](O)[C@H](O)CO [D-Xylose]
Assimilation of carbon compounds [2]: + latent or

COC(=O)[C@@H](O)[C@H](O)[C@H](O)[C@@H](O)C=O [D-galacturonic acid-methyl ester]
Other redox Compounds [3]: 1.3 µg/mL | Total Ascorbate [3]: 4,383 ug/100 ml | L-Ascorbate [3]: 12.0 µg/mL | Optical Density [3]: 8.50 | Other redox Compounds [4]: 17.5 µg/mL | Total Ascorbate [4]: 473 ug/100 ml | L-Ascorbate [4]: 3.5 µg/mL | Optical Density [4]: 2.60

O=C1O[C@H]([C@@H](O)CO)[C@@H](O)[C@@H]1O [L-galactono-1,4-lactone]
Other redox Compounds [3]: 1.8 µg/mL | Total Ascorbate [3]: 15,905 ug/100 ml | L-Ascorbate [3]: 50.0 µg/mL | Optical Density [3]: 8.50 | Other redox Compounds [4]: 10.1 µg/mL | Total Ascorbate [4]: 10,625 ug/100 ml | L-Ascorbate [4]: 92.8 µg/mL | Optical Density [4]: 2.05 | Km [5]: 1300 µM

O=C(O)[C@@H](O)[C@H](O)[C@H](O)[C@@H](O)CO [L-galactonic acid]
utilization as substrate for L-ascorbic acid [1]: yields of L-ascorbic acid are reduced

O=[N+]([O-])[O-].[K+] [KNO3]
Assimilation of KNO3 [2]: negative

B1: L-galactono-1,4-lactone oxidase (Saccharomyces cerevisiae S288C) (protein)
chain: MSTIPFRKNYVFKNWAGIYSAKPERYFQPSSIDEVVELVKSARLAEKSLVTVGSGHSPSNMCVTDEWLVNLDRLDKVQKFVEYPELHYADVTVDAGMRLYQLNEFLGAKGYSIQNLGSISEQSVAGIISTGSHGSSPYHGLISSQYVNLTIVNGKGELKFLDAENDPEVFKAALLSVGKIGIIVSATIRVVPGFNIKSTQEVITFENLLKQWDTLWTSSEFIRVWWYPYTRKCVLWRGNKTTDAQNGPAKSWWGTKLGRFFYETLLWISTKIYAPLTPFVEKFVFNRQYGKLEKSSTGDVNVTDSISGFNMDCLFSQFVDEWGCPMDNGLEVLRSLDHSIAQAAINKEFYVHVPMEVRCSNTTLPSEPLDTSKRTNTSPGPVYGNVCRPFLDNTPSHCRFAPLENVTNSQLTLYINATIYRPFGCNTPIHKWFTLFENTMMVAGGKPHWAKNFLGSTTLAAGPVKKDTDYDDFEMRGMALKVEEWYGEDLKKFRKIRKEQDPDNVFLANKQWAIINGIIDPSELSD
notes: The pellet (mitochondria) was saved and resuspended in 250 ml; endogenous in cells; host or cells: mitochondria of Red Star baker's yeast (Saccharomyces cerevisiae)
Km [6]: 1600 µM | Vmax [6]: 0.34 µmol/min
